The values below come from patent US20190022135A1, “TREATMENT FOR CHITIN-CONTAINING MICROORGANISMS” (Benchmark Animal Health Limited, priority 2016, published 2019).

The structures appear in SMILES notation.

Data set [1] deals with Saprolegnia sp. Description: Effect on Saprolegnia zoospores, spores and hyphae (stated finding).
Data set [2] relates to Saprolegnia spores. The data set is described as follows: Saprolegnia spore viability in biofilms (CellTiter 96 MTS assay). Type of data set: cell-based. The settings on record: 4 h.
Experimental: The effect of treating Saprolegnia-spores with combinations of boric acid and propionic acid was investigated in biofilm preparations since this is one of the most challenging conditions under which effects can be tested.
Spores were produced to form biofilms. Saprolegnia hyphae were excised from GY agar plates and then incubated in GY broth (15±1° C., 2 days), giving additional hyphal growth. Young hyphae were washed in SAW, transferred to two glass bottles containing one liter of SAW and incubated at 21±1° C. (24 h) to allow zoospore production. Suspensions of zoospores were filtered (tea filter, 0.5 mm pores) resulting in zoospore encystment. Cysts were counted by hemocytometer, the cyst suspensions were adjusted to 1.0±104 spores/L. The suspension was then used in the biofilm formation studies (chambered cover glass system) within 3 h of counting.
Treatment with BA and/or PA was for 4 hours in stagnate, aerated water after which the water circulation was resumed. Biofilm preparations were tested for viability as described (Ali et al. 2014). In brief, CellTiter 96 aqueous one solution cell proliferation assay (Promega) was used. The test is based on tetrazolium compound [3-(4,5-dimethylthiazol-2-yl)-5-(3-carboxy-methoxyphenyl)-2-(4-sulfophenyl)-2H-tetrazolium, inner salt; MTS] being reduced by viable cells resulting in the formation of formazan products from MTS. The reaction is based on mitochondrial enzymes being active (dehydrogenase) (Lopes et al. 2013), and is an indicator of metabolic rate of the mitochondria.
Tests were run in 72-well plates with biofilm formed in the wells. BA and/or PA was then added to each tested well (except controls) at increasing concentrations, 1-4 g/L for BA and 31.4 to 125.6 mM/L for PA. Bronopol was used as a positive treatment but at 300 mg/L concentration, and SAW as negative control. Wells with the MTS reagent without spores were used as a background control. The plates were incubated at 15-20° C. Reading was done following 4 h incubation of BA and PA. Formazan product was measured at 490 nm. MTS reduction is proportional to the number and activity of live spores. Spore viability was calculated by: % viability=100×(OD490 value for the sample−mean background OD490)/(mean OD490 for non-treated water control−mean background OD490).
The test system of data set [3] is sea lice. Description: In vivo studies: number of attached sea lice after treatment. To be noted: 2.75 ppm/L PA only, 15 min exposure, 4 days post treatment. As to the method: Water salinity: […]; Temperature: 8.5° C.; Oxygen: minimum 8 mg/L in water during treatment (8-10 mg/L measured).
In data set [4] the test system is eggs and/or fry of Atlantic salmon. The settings on record: 50 mg/L treatment for 1 h; cited from earlier work.

Turning to `OB(O)O` [BA, boric acid], the “effect on zoospore production and release and on zoosporangia” value in data set [1] was “interferes with the production and subsequent release of zoospores”. In addition, the “viability (OD value)” value in data set [2] (BA from 1 g/L up to 4 g/L, biofilm) was “declining viability”.
Turning to `CCC(=O)O` [PA, propionic acid], in data set [1], the “effect on spores and hyphae” value is “direct toxic effect”. Besides, the “reduction of the number of attached sea lice” value in data set [3] is reported as “Reduced the number of attached sea lice by 30%”. For the same compound, the “viability (OD value)” value in data set [2] (PA 4 ml added (equivalent to 125.6 mM/L), biofilm) was “lower OD value”. Moreover, the “viability, statistical evaluation against 4 g/L of BA” value in data set [2] (PA (4 ml)) is “significantly lower viability”.
Take `O=[N+]([O-])C(Br)(CO)CO` [Pyzece, Bronopol]: in data set [2] (300 mg/L, biofilm, compared with BA and PA combination (approx. 0.3)), the “viability level (OD value)” value is on record as “same viability level”. Besides, the egg toxicity entry in data set [4] is on record as “egg mortality”.
